In patent US5545629A, “5-ethoxy-2'-deoxyuridines” (Montefiore Medical Center, priority 1994, dated 1996):
Like-named read-outs stand apart in the source and are kept apart here.

Key:
HT-29 cells = experiment: growth inhibition of HT-29 cells, 6 days, sulforhodamine B staining; assay type: cell-based, human; conditions: for IC50: HT-29, 6 days, sulforhodamine B
Experimental: The growth inhibitory effect of 5-ethoxy-2'-deoxyuridine was compared with other analogous 5-substituted-2'-deoxyuridine compounds by determining the IC50 of each compound in an assay which measured the growth inhibition of HT-29 cells. The HT-29 cells were placed in 96 well plates (2×10^4 cells per well) in RPMI 1640 with 10% added fetal bovine serum. After allowing the cells to attach overnight, several concentrations of the test compounds were added. After 6 days, cell numbers were quantitated by staining with sulforhodamine B (Skehan et al., J. Natl. Canc. Inst, 82, 1107-1112, 1990).

[1] = system: HT-29 human carcinoma cells; experiment: in vitro clonogenic assay (cloning efficiency) with HT-29 cells, 72 h drug exposure; assay type: cell-based; conditions: for IC50: read-out: IC50 for 5-fluorouracil (50% reduction of cloning efficiency)
Experimental: For assessment of the antitumor activity of 5-ethoxy-2'-deoxyuridine, an in vitro clonogenic assay was used. The assay was based on a modification of procedures first described by Puck and Marcus (Proc. Natl. Acad. Sci. (USA) 41:432-437, 1955). […] 3:225-231, 1991; A. F. Sobrero et al., J. Natl. Cancer Inst. 85:1937-1944, 1993).
HT-29 human carcinoma cells (ATCC No. HTB-38) were maintained in RPMI 1640 with 10% v/v fetal bovine serum (GIBCO) in a humidified, 5% CO2 atmosphere at 37° C. Cells were plated in 24 well plates (150 cells per well) in RPMI 1640 medium with 10% v/v dialyzed fetal bovine serum. After allowing cell attachment to proceed overnight, combinations of interferon-α (500 units/ml; Roferon-A, Roche Labs.), 5-ethoxy-2'-deoxyuridine (150 μM), in the presence of increasing concentrations of 5-fluorouracil (as specified in the Table) were added. The various agents were diluted in phosphate-buffered saline, and control wells received vehicle alone. After 72 hours, drug containing medium was removed and replaced with RPMI 1640 with 10% v/v fetal bovine serum. Cell colonies were allowed to grow for an additional 7-10 days, at which point they were stained and counted. […] Data are means of at least 3 determinations. The IC50 values for 5-fluorouracil were calculated graphically by determining the concentration of 5-fluorouracil that reduced cloning efficiency by 50% from the cloning efficiency value measured in the absence of 5-fluorouracil.

With 5-propynyloxy-2'-deoxyuridine as the compound, how does the IC50 (HT-29 cells) read?
The IC50 was > 3000 µM.

For O=c1[nH]cc(F)c(=O)[nH]1 [5-FU, 5-fluorouracil], which “Cloning Efficiency (% of control)” value ([1]; 5-FU 0.025 μM with 5-ETH 150 μM + IFN 500 u/ml, 4320 min) is on record?
The value was 89 % of control.

What about the “Cloning Efficiency (% of control)” value ([1]; 5-FU 0.05 μM with 5-ETH 150 μM + IFN 500 u/ml, 4320 min) of the same compound?
Its value is 81 % of control.

And the “Cloning Efficiency (% of control)” value ([1]; 5-FU 0.05 μM with 5-ETH 150 μM, 4320 min)?
The value was 81 % of control.

And the “Cloning Efficiency (% of control)” value ([1]; 5-FU 0.10 μM with 5-ETH 150 μM + IFN 500 u/ml, 4320 min)?
The value was 38 % of control.

What about the “Cloning Efficiency (% of control)” value ([1]; 5-FU 0.10 μM with 5-ETH 150 μM, 4320 min) of the same compound?
The value was 80 % of control.

What about the “Cloning Efficiency (% of control)” value ([1]; 5-FU 0.15 μM with 5-ETH 150 μM + IFN 500 u/ml, 4320 min) of the same compound?
The value was 9 % of control.

And the “Cloning Efficiency (% of control)” value ([1]; 5-FU 0.25 μM with 5-ETH 150 μM + IFN 500 u/ml, 4320 min)?
Its value is 0 % of control.

And the “Cloning Efficiency (% of control)” value ([1]; 5-FU 0.25 μM with 5-ETH 150 μM, 4320 min)?
Its value is 60 % of control.

What about the “Cloning Efficiency (% of control)” value ([1]; 5-FU 0.25 μM with IFN 500 u/ml, 4320 min) of the same compound?
The value was 97 % of control.

What about the “Cloning Efficiency (% of control)” value ([1]; 5-FU 0.50 μM with 5-ETH 150 μM, 4320 min) of the same compound?
Its value is 38 % of control.

What about the “Cloning Efficiency (% of control)” value ([1]; 5-FU 0.50 μM with IFN 500 u/ml, 4320 min) of the same compound?
The value was 83 % of control.

What about the “Cloning Efficiency (% of control)” value ([1]; 5-FU 1.0 μM with 5-ETH 150 μM, 4320 min) of the same compound?
The value was 13 % of control.

And the “Cloning Efficiency (% of control)” value ([1]; 5-FU 1.0 μM with IFN 500 u/ml, 4320 min)?
Its value is 56 % of control.

And the “Cloning Efficiency (% of control)” value ([1]; 5-FU 1.5 μM with 5-ETH 150 μM, 4320 min)?
The value was 4 % of control.

And the “Cloning Efficiency (% of control)” value ([1]; 5-FU 1.5 μM with IFN 500 u/ml, 4320 min)?
The value was 18 % of control.

What about the “Cloning Efficiency (% of control)” value ([1]; 5-FU 2.0 μM with IFN 500 u/ml, 4320 min) of the same compound?
Its value is 8 % of control.

What about the “Cloning Efficiency (% of control)” value ([1]; 5-FU 3.0 μM with IFN 500 u/ml) of the same compound?
The value was 1 % of control.

And the IC50 ([1]; Homo sapiens, HT-29, 72 h, 5-FU alone (CONT, PBS))?
Its IC50 is 2 µM.

What about the IC50 ([1]; Homo sapiens, HT-29, 72 h, 5-FU with 5-ETH 150 μM + IFN 500 u/ml) of the same compound?
Its IC50 is 0.08 µM.

And the IC50 ([1]; Homo sapiens, HT-29, 72 h, 5-FU with 5-ETH 150 μM)?
The IC50 was 0.35 µM.

What about the IC50 ([1]; Homo sapiens, HT-29, 72 h, 5-FU with IFN 500 u/ml) of the same compound?
Its IC50 is 1.1 µM.

What about the activity at 0.25 µM ([1]; Homo sapiens, HT-29, 72 h, 5-FU 0.25 μM alone (CONT, PBS), read-out: Cloning Efficiency (% of control)) of the same compound?
Its activity at 0.25 µM is 104%.

And the activity at 0.5 µM ([1]; Homo sapiens, HT-29, 72 h, 5-FU 0.50 μM alone (CONT, PBS), read-out: Cloning Efficiency (% of control))?
The activity at 0.5 µM was 93%.

What about the activity at 1 µM ([1]; Homo sapiens, HT-29, 72 h, 5-FU 1.0 μM alone (CONT, PBS), read-out: Cloning Efficiency (% of control)) of the same compound?
Its activity at 1 µM is 87%.

What about the activity at 1.5 µM ([1]; Homo sapiens, HT-29, 72 h, 5-FU 1.5 μM alone (CONT, PBS), read-out: Cloning Efficiency (% of control)) of the same compound?
The activity at 1.5 µM was 60%.

And the activity at 2 µM ([1]; Homo sapiens, HT-29, 72 h, 5-FU 2.0 μM alone (CONT, PBS), read-out: Cloning Efficiency (% of control))?
Its activity at 2 µM is 55%.

And the activity at 3 µM ([1]; Homo sapiens, HT-29, 72 h, 5-FU 3.0 μM alone (CONT, PBS), read-out: Cloning Efficiency (% of control))?
The activity at 3 µM was 27%.

And the activity at 4 µM ([1]; Homo sapiens, HT-29, 72 h, 5-FU 4.0 μM alone (CONT, PBS), read-out: Cloning Efficiency (% of control))?
The activity at 4 µM was 5%.

Which activity at 150 µM ([1]; Homo sapiens, HT-29, 72 h, 5-ETH 150 μM alone, no 5-FU (0), read-out: Cloning Efficiency (% of control)) does the source give for CCOc1cn([C@H]2C[C@H](O)[C@@H](CO)O2)c(=O)[nH]c1=O [5-ethoxy-2'-deoxyuridine] here?
Its activity at 150 µM is 89%.

And the “toxicity relative to the ethyl analog” value (HT-29 cells; HT-29 cytotoxicity, fraction of the toxicity of the ethyl analog)?
The value was “about 1/300”.

And the “toxicity relative to the methyloxy analog” value (HT-29 cells; HT-29 cytotoxicity, fraction of the toxicity of the methyloxy analog)?
The value was “about 1/27”.

And the “toxicity relative to the propyloxy analog” value (HT-29 cells; HT-29 cytotoxicity, fraction of the toxicity of the propyloxy analog)?
The value was “about 1/2”.

What about the IC50 (HT-29 cells; Homo sapiens, 144 h) of the same compound?
Its IC50 is 750 µM.

What about the “toxicity compared with many other prior art 5-substituted-2'-deoxyuridines that have been tested” value (HT-29 cells; statement in words) of the same compound?
Its value is “less toxic”.

Which IC50 (HT-29 cells; Homo sapiens, 144 h) does the source give for CCc1cn([C@H]2C[C@H](O)[C@@H](CO)O2)c(=O)[nH]c1=O [5-ethyl-2'-deoxyuridine] here?
The IC50 was 2.5 µM.

For COc1cn([C@H]2C[C@H](O)[C@@H](CO)O2)c(=O)[nH]c1=O [5-methoxy-21-deoxyuridine], which IC50 (HT-29 cells; Homo sapiens, 144 h) is on record?
The IC50 was 28 µM.

For CCCOc1cn([C@H]2C[C@H](O)[C@@H](CO)O2)c(=O)[nH]c1=O [5-propyloxy-2'-deoxyuridine], which IC50 (HT-29 cells; Homo sapiens, 144 h) is on record?
The IC50 was 325 µM.
